One experiment addresses PIK3CA (human) (UniProt P42336). Put plainly: Inhibition of PIK3CA Kinase Activity.
For the next experiment, the target named is PIK3CD (Human) (UniProt O00329). Put plainly: Enzyme Assay.
The target in another experiment is PIK3CG (human) (UniProt P48736). Description: Enzyme Assay.
For a further experiment, the target named is PIK3CB (Human) (UniProt P42338). Description: Inhibition of PIK3CB Kinase Activity.

Usually IC50 stands for the midpoint of a concentration-inhibition curve.

Sequence of PIK3CB (Human) (P42338 whole entry, looked up): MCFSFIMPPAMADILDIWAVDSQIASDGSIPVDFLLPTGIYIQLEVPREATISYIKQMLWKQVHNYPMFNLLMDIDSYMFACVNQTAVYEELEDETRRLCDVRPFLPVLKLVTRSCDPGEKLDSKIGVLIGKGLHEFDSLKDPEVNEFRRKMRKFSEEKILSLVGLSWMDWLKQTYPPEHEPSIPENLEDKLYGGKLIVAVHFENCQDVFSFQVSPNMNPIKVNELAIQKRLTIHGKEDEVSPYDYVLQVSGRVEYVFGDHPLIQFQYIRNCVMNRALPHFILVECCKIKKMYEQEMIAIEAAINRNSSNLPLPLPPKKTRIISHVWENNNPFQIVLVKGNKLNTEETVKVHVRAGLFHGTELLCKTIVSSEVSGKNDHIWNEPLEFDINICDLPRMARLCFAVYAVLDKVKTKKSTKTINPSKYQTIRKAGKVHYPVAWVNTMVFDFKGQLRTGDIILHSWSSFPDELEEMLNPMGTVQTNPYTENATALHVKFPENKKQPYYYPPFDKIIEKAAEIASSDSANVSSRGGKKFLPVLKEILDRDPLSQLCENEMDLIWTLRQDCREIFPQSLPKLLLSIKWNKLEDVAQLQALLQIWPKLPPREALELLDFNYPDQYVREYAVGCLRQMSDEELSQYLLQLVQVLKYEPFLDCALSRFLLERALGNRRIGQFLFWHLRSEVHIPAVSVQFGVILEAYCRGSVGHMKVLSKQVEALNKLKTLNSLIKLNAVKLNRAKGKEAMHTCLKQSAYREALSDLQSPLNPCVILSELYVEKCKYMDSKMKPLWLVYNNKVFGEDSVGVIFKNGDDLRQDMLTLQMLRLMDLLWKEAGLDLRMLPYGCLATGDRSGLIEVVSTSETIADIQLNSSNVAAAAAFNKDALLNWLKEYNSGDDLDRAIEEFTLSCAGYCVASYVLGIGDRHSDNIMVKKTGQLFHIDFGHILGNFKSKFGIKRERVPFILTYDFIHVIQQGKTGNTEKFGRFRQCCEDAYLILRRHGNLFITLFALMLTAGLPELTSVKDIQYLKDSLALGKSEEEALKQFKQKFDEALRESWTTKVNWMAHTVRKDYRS
Sequence of PIK3CD (Human) (O00329 whole entry, looked up): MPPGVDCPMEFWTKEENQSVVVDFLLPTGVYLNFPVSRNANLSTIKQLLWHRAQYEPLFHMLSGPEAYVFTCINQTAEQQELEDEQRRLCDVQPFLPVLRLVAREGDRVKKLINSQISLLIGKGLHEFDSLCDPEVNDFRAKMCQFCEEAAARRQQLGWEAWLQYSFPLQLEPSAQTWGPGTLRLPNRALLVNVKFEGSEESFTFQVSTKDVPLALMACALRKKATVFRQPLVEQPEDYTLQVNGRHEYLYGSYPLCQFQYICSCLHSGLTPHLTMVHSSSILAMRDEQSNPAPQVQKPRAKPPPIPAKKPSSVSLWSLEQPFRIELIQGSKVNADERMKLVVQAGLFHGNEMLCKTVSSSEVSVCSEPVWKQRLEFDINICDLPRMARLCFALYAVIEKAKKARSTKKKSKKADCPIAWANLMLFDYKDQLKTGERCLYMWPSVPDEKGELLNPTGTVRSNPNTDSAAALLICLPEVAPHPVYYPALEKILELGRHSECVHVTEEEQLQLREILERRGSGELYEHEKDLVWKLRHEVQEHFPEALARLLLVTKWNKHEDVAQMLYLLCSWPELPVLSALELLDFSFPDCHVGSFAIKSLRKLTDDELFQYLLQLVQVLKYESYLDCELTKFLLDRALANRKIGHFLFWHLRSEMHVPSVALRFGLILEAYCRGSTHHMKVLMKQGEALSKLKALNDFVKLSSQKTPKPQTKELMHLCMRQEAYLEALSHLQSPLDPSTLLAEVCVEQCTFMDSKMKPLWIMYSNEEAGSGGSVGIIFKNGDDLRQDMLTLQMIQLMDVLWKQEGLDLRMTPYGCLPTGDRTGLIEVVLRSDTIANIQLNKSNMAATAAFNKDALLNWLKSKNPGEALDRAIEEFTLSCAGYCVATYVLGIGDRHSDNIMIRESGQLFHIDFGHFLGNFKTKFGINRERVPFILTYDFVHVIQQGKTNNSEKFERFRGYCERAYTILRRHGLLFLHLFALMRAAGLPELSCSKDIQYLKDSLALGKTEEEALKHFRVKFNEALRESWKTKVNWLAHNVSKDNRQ
Sequence of PIK3CA (human) (P42336 whole entry, looked up): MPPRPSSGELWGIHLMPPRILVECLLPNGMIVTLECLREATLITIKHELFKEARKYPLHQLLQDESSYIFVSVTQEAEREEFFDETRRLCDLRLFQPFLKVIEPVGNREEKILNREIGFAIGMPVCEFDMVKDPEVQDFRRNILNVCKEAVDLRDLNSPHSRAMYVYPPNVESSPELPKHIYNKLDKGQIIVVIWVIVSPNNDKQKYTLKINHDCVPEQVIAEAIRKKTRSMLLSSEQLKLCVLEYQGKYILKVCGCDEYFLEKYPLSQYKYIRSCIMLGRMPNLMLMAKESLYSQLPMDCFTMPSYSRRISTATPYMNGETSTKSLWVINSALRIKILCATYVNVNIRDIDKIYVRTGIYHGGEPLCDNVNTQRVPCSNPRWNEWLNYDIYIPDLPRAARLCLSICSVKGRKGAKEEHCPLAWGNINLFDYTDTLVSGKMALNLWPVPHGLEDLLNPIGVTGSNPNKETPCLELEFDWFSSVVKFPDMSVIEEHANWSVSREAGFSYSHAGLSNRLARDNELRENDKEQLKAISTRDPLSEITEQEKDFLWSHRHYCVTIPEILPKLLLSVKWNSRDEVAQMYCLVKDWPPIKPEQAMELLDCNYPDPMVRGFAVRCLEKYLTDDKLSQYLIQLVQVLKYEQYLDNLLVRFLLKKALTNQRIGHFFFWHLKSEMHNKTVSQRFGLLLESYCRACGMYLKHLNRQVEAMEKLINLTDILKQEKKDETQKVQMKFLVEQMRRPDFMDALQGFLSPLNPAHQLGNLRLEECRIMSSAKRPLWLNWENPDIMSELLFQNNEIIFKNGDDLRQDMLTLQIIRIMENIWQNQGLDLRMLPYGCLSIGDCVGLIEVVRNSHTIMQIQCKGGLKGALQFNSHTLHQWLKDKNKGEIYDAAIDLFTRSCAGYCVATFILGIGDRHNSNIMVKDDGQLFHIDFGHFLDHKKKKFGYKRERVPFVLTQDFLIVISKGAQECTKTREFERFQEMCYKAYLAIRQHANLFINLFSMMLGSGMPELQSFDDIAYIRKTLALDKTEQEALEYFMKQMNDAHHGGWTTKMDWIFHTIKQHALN
Sequence of PIK3CG (human) (P48736 whole entry, looked up): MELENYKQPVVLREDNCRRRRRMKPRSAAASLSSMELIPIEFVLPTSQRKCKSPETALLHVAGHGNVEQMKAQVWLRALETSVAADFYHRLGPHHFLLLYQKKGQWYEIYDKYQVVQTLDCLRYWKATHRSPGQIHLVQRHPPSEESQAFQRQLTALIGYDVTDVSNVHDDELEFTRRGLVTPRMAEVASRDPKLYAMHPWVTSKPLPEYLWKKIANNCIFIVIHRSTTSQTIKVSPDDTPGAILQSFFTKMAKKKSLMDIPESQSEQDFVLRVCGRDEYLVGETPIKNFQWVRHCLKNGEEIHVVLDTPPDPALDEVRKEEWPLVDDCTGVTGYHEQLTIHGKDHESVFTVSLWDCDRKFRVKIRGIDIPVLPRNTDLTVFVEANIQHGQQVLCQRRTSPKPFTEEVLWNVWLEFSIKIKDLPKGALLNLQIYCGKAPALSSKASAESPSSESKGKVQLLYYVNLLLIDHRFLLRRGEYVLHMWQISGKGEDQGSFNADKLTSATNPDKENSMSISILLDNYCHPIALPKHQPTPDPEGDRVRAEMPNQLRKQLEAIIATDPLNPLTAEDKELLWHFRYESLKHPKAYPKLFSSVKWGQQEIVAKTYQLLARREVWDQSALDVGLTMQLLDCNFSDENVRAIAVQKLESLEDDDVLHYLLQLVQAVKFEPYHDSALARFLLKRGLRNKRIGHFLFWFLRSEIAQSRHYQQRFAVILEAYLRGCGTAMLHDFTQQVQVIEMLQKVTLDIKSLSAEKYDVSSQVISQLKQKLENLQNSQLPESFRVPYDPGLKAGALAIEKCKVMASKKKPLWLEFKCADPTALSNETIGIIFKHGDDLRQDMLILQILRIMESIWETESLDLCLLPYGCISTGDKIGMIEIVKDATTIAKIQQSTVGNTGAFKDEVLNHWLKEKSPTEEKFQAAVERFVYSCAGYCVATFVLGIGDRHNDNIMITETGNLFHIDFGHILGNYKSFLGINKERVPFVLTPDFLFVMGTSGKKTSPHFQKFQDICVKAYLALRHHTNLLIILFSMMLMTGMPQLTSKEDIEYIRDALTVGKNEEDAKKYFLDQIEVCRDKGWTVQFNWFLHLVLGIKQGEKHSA

On PIK3CA (human), `CC(C)n1nc(-c2ccc3nc(NCCO)sc3c2)c2c(N)ncnc21` displayed an IC50 of 500 to 1000 nM.
`CNc1nc2ccc(-c3nn(C(C)C)c4ncnc(N)c34)cc2s1`: the IC50 was 100 to 500 nM at PIK3CD (Human), no more than 50 nM against PIK3CG (human) and 50 to 100 nM on PIK3CA (human).
For the molecule `CNC(=O)Nc1nc2ccc(-c3nn(C(C)C)c4ncnc(N)c34)cc2s1`, the 50% inhibitory concentration (IC50) against PIK3CD (Human), against PIK3CG (human) and against PIK3CA (human) was no more than 50 nM throughout.
As to `CCNc1nc2ccc(-c3nn(C(C)C)c4ncnc(N)c34)cc2s1`, the IC50 on PIK3CD (Human) lay in the range of 500 to 1000 nM; against PIK3CG (human), 100 to 500 nM; against PIK3CA (human), 100 to 500 nM.
Take `CC(=O)Nc1nc2ccc(-c3nn(C4CCC4)c4ncnc(N)c34)cc2s1`: the IC50 is 50 to 100 nM against PIK3CD (Human), no more than 50 nM on PIK3CG (human) and 50 to 100 nM against PIK3CA (human).
Regarding `CNC(=O)Nc1nc2ccc(-c3cn(C(C)C)c4ncnc(N)c34)cc2s1`, the 50% inhibitory concentration (IC50) at PIK3CB (Human), at PIK3CD (Human), on PIK3CG (human) and at PIK3CA (human) was no more than 50 nM each time.
Take `CC(C)n1nc(-c2cc3cccc(O)c3[nH]2)c2c(N)ncnc21`: the half-maximal inhibitory concentration (IC50) against PIK3CD (Human) and against PIK3CG (human) was 100 to 500 nM in each case.
As for `CC(C)n1nc(-c2cc3ccc(O)cc3[nH]2)c2c(N)ncnc21`, the IC50 against PIK3CD (Human), against PIK3CG (human) and against PIK3CA (human) was 100 to 500 nM throughout.
Regarding `CNC(=O)Nc1nc2ccc(-c3cn(C4CCN(C(C)=O)CC4)c4ncnc(N)c34)cc2s1`, the half-inhibitory concentration (IC50) against PIK3CB (Human) was 50 to 100 nM; against PIK3CD (Human), no more than 50 nM; against PIK3CG (human) it was no more than 50 nM; against PIK3CA (human), no more than 50 nM.
For `CC(=O)Nc1nc2ccc(-c3nn(C4CCCC4)c4ncnc(N)c34)cc2s1`, the IC50 at PIK3CD (Human), at PIK3CG (human) and against PIK3CA (human) was no more than 50 nM throughout.
With `CCn1nc(-c2ccc3nc(NC(C)=O)sc3c2)c2c(N)ncnc21`, the IC50 was no more than 50 nM at PIK3CD (Human), no more than 50 nM on PIK3CG (human) and 50 to 100 nM against PIK3CA (human).
In the case of `CC(C)n1nc(-c2cc3cc(O)cc(F)c3[nH]2)c2c(N)ncnc21`, the IC50 lay within 50 to 100 nM against PIK3CD (Human) and 100 to 500 nM on PIK3CG (human).
As to `CNC(=O)Nc1nc2ccc(-c3cn(C4CCOCC4)c4ncnc(N)c34)cc2s1`, the IC50 against PIK3CB (Human), against PIK3CD (Human), against PIK3CG (human) and against PIK3CA (human) was no more than 50 nM in each case.
On to `CC(=O)Nc1nc2ccc(-c3nn(C(C)C)c4ncnc(N)c34)cc2s1`, for which the IC50 is no more than 50 nM against PIK3CD (Human), no more than 50 nM at PIK3CG (human) and 100 to 500 nM at PIK3CA (human).
Turning to `CC(C)n1nc(-c2cc3cc(O)cc(Cl)c3[nH]2)c2c(N)ncnc21`, the 50% inhibitory concentration (IC50) against PIK3CD (Human) and against PIK3CG (human) was 25 to 50 nM each time.
For `CC(C)n1nc(-c2ccc3nc(N)sc3c2)c2c(N)ncnc21`, the IC50 is 50 to 100 nM at PIK3CD (Human), no more than 50 nM against PIK3CG (human) and 100 to 500 nM against PIK3CA (human).
`CC(C)n1nc(-c2ccc3nc(NC(=O)C4CC4)sc3c2)c2c(N)ncnc21` displayed a concentration for half-maximal inhibition (IC50) at PIK3CA (human) of 500 to 1000 nM.
Turning to `CC(=O)Nc1nc2ccc(-c3nn(C)c4ncnc(N)c34)cc2s1`, the half-inhibitory concentration (IC50) on PIK3CA (human) was 500 to 1000 nM.
`CCC(=O)Nc1nc2ccc(-c3nn(C(C)C)c4ncnc(N)c34)cc2s1` had an IC50 on PIK3CA (human) of 100 to 500 nM.
Turning to `CC(=O)Nc1nc2ccc(-c3nn(C4CCOCC4)c4ncnc(N)c34)cc2s1`, the results for the concentration for half-maximal inhibition (IC50) on PIK3CD (Human), at PIK3CG (human) and against PIK3CA (human) were no more than 50 nM, no more than 50 nM and 100 to 500 nM, respectively.

Values taken from the Kinase Knowledgebase extract (Sharma et al. 2016).
